Among the data in a flash point compilation (Sun et al. 2020) are flash point values, retold here.

Each structure is given as a SMILES string.

Molecule `BrC1CCCCC1` [bromocyclohexane] gave a flash point of 62 °C.

As to `CCBr` [bromoethane], the flash point was -20 °C.

For the molecule `CCCC=O` [butanal], the flash point was -7 °C.

Take `CCCC(=O)O` [butanoicacid]: the flash point came out at 69 °C.

As to `CCCCOC(C)=O` [butylacetate], the flash point turned out to be 25 °C.

As for `CCCCC1CCCC1` [butylcyclopentane], the flash point turned out to be 32 °C.

For the molecule `CCCCOC=O` [butylformate], the flash point worked out at 18 °C.

As for `CCCCOC` [butylmethylether], the flash point was -10 °C.

As for `CCCCOC(=O)CC` [butylpropanoate], the flash point was 38 °C.

As for `CCCC#N` [butyronitrile], the flash point came to 18 °C.

For `Clc1ccccc1` [chlorobenzene], the flash point came to 28 °C.

In turn, `ClC1CCCC1` [chlorocyclopentane] yielded a flash point of 15 °C.

In turn, `C[C@H]1CC[C@@H](C)CC1` [cis-1,4-dimethylcyclohexane] returned a flash point of 6 °C.

For the molecule `C/C=C\CCCC` [cis-2-heptene], the flash point is -6 °C.

Turning to `C/C=C\CCC` [cis-2-hexene], the flash point was -25 °C.

`CC/C=C\CCC` [cis-3-heptene]: the flash point is -9 °C.

In turn, `CCC/C=C\CCC` [cis-4-octene] came in with a flash point of 17 °C.

`C1CC[C@H]2CCCC[C@H]2C1` [cis-decalin] returned a flash point of 57 °C.

Consider `NC1CCC1` [cyclobutylamine], for which the flash point was -4 °C.

The molecule `O=C1CCCCCC1` [cycloheptanone] returned a flash point of 56 °C.

Molecule `O=CC1CCCCC1` [cyclohexanecarboxaldehyde] yielded a flash point of 41 °C.

On to `OC1CCCCC1` [cyclohexanol], for which the flash point was 63 °C.

Molecule `O=C1CCCCC1` [cyclohexanone] yielded a flash point of 43 °C.

`C1CCC2OC2C1` (stereo unspecified) [cyclohexeneoxide] came in with a flash point of 24 °C.

The molecule `C=C(C)C(=O)OC1CCCCC1` [cyclohexylmethacrylate] yielded a flash point of 82 °C.

Regarding `CCC(=O)OC1CCCCC1` [cyclohexylpropanoate], the flash point is 68 °C.

Molecule `C1CCCCCCCC1` [cyclononane] gave a flash point of 43 °C.

`OC1CCCC1` [cyclopentanol] registered a flash point of 51 °C.

`COC1CCCC1` [cyclopentylmethylether]: the flash point is -1 °C.

`NC1CC1` [cyclopropylamine]: the flash point was -25 °C.

Turning to `CCCCCCCCCC=O` [decanal], the flash point worked out at 83 °C.

In turn, `CCCCCCCCCC#N` [decanenitrile] came in with a flash point of 92 °C.

Regarding `CCCCCCCCCCOC(C)=O` [decylacetate], the flash point is 104 °C.

For `CCC(C)SC(C)CC` (stereo unspecified) [di-sec-butylsulfide], the flash point was found to be 39 °C.

The molecule `CC(C)(C)SC(C)(C)C` [di-tert-butylsulfide] yielded a flash point of 27 °C.

`C=CCSSCC=C` [diallyldisulfide] returned a flash point of 62 °C.

In the case of `C=CCOCC=C` [diallylether], the flash point was -7 °C.

As for `CCOCOCC` [diethoxymethane], the flash point was -5 °C.

`CCOC(=O)OCC` [diethylcarbonate] yielded a flash point of 33 °C.

In turn, `CCSSCC` [diethyldisulfide] showed a flash point of 39 °C.

Turning to `CCOCC` [diethylether], the flash point is -40 °C.

As to `CCSCC` [diethylsulfide], the flash point was -10 °C.

In the case of `CC(C)CNCC(C)C` [diisobutylamine], the flash point worked out at 30 °C.

On to `CC(C)CC(=O)CC(C)C` [diisobutylketone], for which the flash point came out at 49 °C.

In the case of `CC(C)COC(=O)c1ccccc1C(=O)OCC(C)C` [diisobutylphthalate], the flash point came to 185 °C.

As for `CC(C)CCSCCC(C)C` [diisopentylsulfide], the flash point was 77 °C.

For the molecule `CC(C)OC(C)C` [diisopropylether], the flash point was -28 °C.

Regarding `CCCCCOCCCCC` [dipentylether], the flash point came to 57 °C.

In turn, `c1ccc(Cc2ccccc2)cc1` [diphenylmethane] returned a flash point of 127 °C.

Molecule `CCCNCCC` [dipropylamine] returned a flash point of 7 °C.

For the molecule `CCCOC(=O)OCCC` [dipropylcarbonate], the flash point was 55 °C.

Take `CCCSCCC` [dipropylsulfide]: the flash point turned out to be 28 °C.

Turning to `C=COC=C` [divinylether], the flash point is -47 °C.

As to `CCCCCCCCCCCC=O` [dodecanal], the flash point was found to be 102 °C.

In the case of `CCO` [ethanol], the flash point is 12 °C.

In the case of `CCOC(=O)C(C)C` [ethyl2-methylpropanoate], the flash point was 13 °C.

`CCOC(=O)CC(C)=O` [ethylacetoacetate] yielded a flash point of 70 °C.

`CCc1ccccc1` [ethylbenzene] returned a flash point of 21 °C.

`CCOC(=O)c1ccccc1` [ethylbenzoate] displayed a flash point of 84 °C.

`CCCC(=O)OCC` [ethylbutanoate] showed a flash point of 20 °C.

Molecule `CCOC(=O)CCl` [ethylchloroacetate] had a flash point of 53 °C.

The molecule `CCOC(=O)C=Cc1ccccc1` [ethylcinnamate] came in with a flash point of 135 °C.

`CCOC=O` [ethylformate]: the flash point is -19 °C.

With `C=C(C)C(=O)OCC` [ethylmethacrylate], the flash point was determined as 19 °C.

As for `CCSC` [ethylmethylsulfide], the flash point is -18 °C.

`CCCCC(=O)OCC` [ethylpentanoate] displayed a flash point of 35 °C.

As to `CCCOCC` [ethylpropylether], the flash point is -25 °C.

Consider `C=COCC` [ethylvinylether], for which the flash point is -45 °C.

For the molecule `Fc1ccccc1` [fluorobenzene], the flash point is -15 °C.

`O=Cc1ccco1` [furfural] returned a flash point of 58 °C.

As to `OCc1ccco1` [furfurylalcohol], the flash point is 75 °C.

`CCCCCCC(=O)O` [heptanoicacid] had a flash point of 109 °C.

`CCCCCCCOC(C)=O` [heptylacetate] displayed a flash point of 67 °C.

Take `CCCCCCCN` [heptylamine]: the flash point amounted to 44 °C.

On to `CCCCCCCOC=O` [heptylformate], for which the flash point is 60 °C.

Take `CCCCCC(=O)O` [hexanoicacid]: the flash point was 102 °C.

`CCCCCC(=O)OC(=O)CCCCC` [hexanoicanhydride] yielded a flash point of 113 °C.

`CCCCCCN` [hexylamine] had a flash point of 27 °C.

The molecule `CCCCCCc1ccccc1` [hexylbenzene] registered a flash point of 83 °C.

`CCCCCCOC(=O)CC` [hexylpropanoate] registered a flash point of 65 °C.

In turn, `CC(C)C(=O)OC(=O)C(C)C` [isobutanoicanhydride] displayed a flash point of 67 °C.

Take `CC(C)CN` [isobutylamine]: the flash point is -10 °C.

As for `CC(C)Cc1ccccc1` [isobutylbenzene], the flash point is 50 °C.

`CC(C)COC(=O)c1ccccc1` [isobutylbenzoate] had a flash point of 102 °C.

Turning to `CC(C)COC=O` [isobutylformate], the flash point worked out at 4 °C.

Molecule `CC(C)C#N` [isobutyronitrile] yielded a flash point of 8 °C.

For the molecule `CCC(=O)OCCC(C)C` [isopentylpropanoate], the flash point came out at 46 °C.

`CC1=CC(=O)CC(C)(C)C1` [isophorone] registered a flash point of 84 °C.

`CC(=O)OC(C)C` [isopropylacetate] gave a flash point of 2 °C.

Regarding `CC(C)OCC1CO1` (stereo unspecified) [isopropylglycidylether], the flash point is 33 °C.

`COC(C)C` [isopropylmethylether]: the flash point was -47 °C.

Turning to `CCc1cccc(CC)c1` [m-diethylbenzene], the flash point was determined as 51 °C.

Molecule `CCc1cccc(C)c1` [m-ethyltoluene] returned a flash point of 38 °C.

Take `Cc1cccc(C(C)C)c1` [m-isopropyltoluene]: the flash point worked out at 47 °C.

`CCCCCC#CC(=O)OC` [methyl2-octynoate] showed a flash point of 89 °C.

On to `COC(=O)c1ccccc1` [methylbenzoate], for which the flash point was 80 °C.

With `COC(=O)C1CCCCC1` [methylcyclohexanecarboxylate], the flash point turned out to be 60 °C.

`COC(=O)C1CC1` [methylcyclopropanecarboxylate] had a flash point of 18 °C.

For `CCCCCCC(=O)OC` [methylheptanoate], the flash point came to 52 °C.

`C=C(C)C(=O)OC` [methylmethacrylate] showed a flash point of 10 °C.

Consider `CCCCC(=O)OC` [methylpentanoate], for which the flash point came to 22 °C.

Turning to `CCC(=O)OC` [methylpropanoate], the flash point is -2 °C.

`O=[N+]([O-])c1ccccc1` [nitrobenzene] gave a flash point of 88 °C.

For the molecule `CCCCCCCCC=O` [nonanal], the flash point stood at 63 °C.

Molecule `CCCCCCCCCc1ccccc1` [nonylbenzene] registered a flash point of 117 °C.

For `CCc1ccccc1C` [o-ethyltoluene], the flash point was found to be 39 °C.

Turning to `Cc1ccccc1C(C)C` [o-isopropyltoluene], the flash point turned out to be 50 °C.

Turning to `Cc1ccccc1N` [o-toluidine], the flash point is 85 °C.

In the case of `Cc1ccccc1C` [o-xylene], the flash point worked out at 30 °C.

As to `CCCCCCCC=O` [octanal], the flash point is 51 °C.

`CCCCCCCCOC(C)=O` [octylacetate] came in with a flash point of 82 °C.
